Source: the NIST ThermoML archive (doi:10.1016/j.jct.2015.05.014)
Numbers after ± are expanded uncertainties.

Assay: activity coefficient (dimensionless); of the first substance listed, at infinite dilution; xn = mol fraction of the nth substance listed
Details: 100 kPa, Liquid, Chromatography, x1 = 0

Compound | activity coefficient (318.15 K) | activity coefficient (328.15 K) | activity coefficient (338.15 K) | activity coefficient (348.15 K) | activity coefficient (358.15 K) | activity coefficient (368.15 K) | activity coefficient (308.15 K) | activity coefficient (378.15 K) | activity coefficient (388.15 K) | activity coefficient (398.15 K) | activity coefficient (408.15 K)
Cc1ccccc1C [1,2-dimethylbenzene] + CC(O)C(=O)[O-].CC[N+]1(C)CCCC1 | 8.23 ± 0.71 | 8.33 ± 0.72 | 8.46 ± 0.73 | 8.57 ± 0.74 | 8.69 ± 0.75 | 8.9 ± 0.8 |  |  |  |  | 
Cc1cccc(C)c1 [1,3-dimethylbenzene] + CC(O)C(=O)[O-].CC[N+]1(C)CCCC1 | 10.1 ± 0.9 | 10.2 ± 0.9 | 10.4 ± 0.9 | 10.4 ± 0.9 | 10.5 ± 0.9 | 10.7 ± 0.9 |  |  |  |  | 
Cc1ccc(C)cc1 [1,4-dimethylbenzene] + CC(O)C(=O)[O-].CC[N+]1(C)CCCC1 | 10 ± 0.9 | 10.1 ± 0.9 | 10.3 ± 0.9 | 10.4 ± 0.9 | 10.5 ± 0.9 | 10.7 ± 0.9 |  |  |  |  | 
C1COCCO1 [1,4-dioxane] + CC(O)C(=O)[O-].CC[N+]1(C)CCCC1 | 2.25 ± 0.19 | 2.33 ± 0.2 | 2.4 ± 0.21 | 2.48 ± 0.21 | 2.55 ± 0.22 | 2.65 ± 0.23 |  |  |  |  | 
C=CCCCCCCCC [1-decene] + CC(O)C(=O)[O-].CC[N+]1(C)CCCC1 | 326 ± 28 | 302 ± 26 | 284 ± 25 | 268 ± 23 | 252 ± 22 | 238 ± 21 | 349 ± 30 |  |  |  | 
C=CCCCCC [1-heptene] + CC(O)C(=O)[O-].CC[N+]1(C)CCCC1 | 83.8 ± 7.3 | 78.7 ± 6.8 | 75.2 ± 6.5 | 71.9 ± 6.2 | 68.8 ± 6 | 66.4 ± 5.7 | 88.8 ± 7.7 |  |  |  | 
C#CCCCCC [1-heptyne] + CC(O)C(=O)[O-].CC[N+]1(C)CCCC1 | 8.83 ± 0.76 | 9.25 ± 0.8 | 9.82 ± 0.85 | 10.3 ± 0.9 | 10.7 ± 0.9 | 11.2 ± 1 | 8.33 ± 0.72 |  |  |  | 
C#CCCCC [1-hexyne] + CC(O)C(=O)[O-].CC[N+]1(C)CCCC1 | 5.48 ± 0.47 | 5.79 ± 0.5 | 6.21 ± 0.54 | 6.54 ± 0.56 | 6.92 ± 0.6 | 7.24 ± 0.62 | 5.14 ± 0.44 |  |  |  | 
CCC[N+](=O)[O-] [1-nitropropane] + CC(O)C(=O)[O-].CC[N+]1(C)CCCC1 | 1.75 ± 0.15 | 1.8 ± 0.15 | 1.86 ± 0.16 | 1.92 ± 0.16 | 1.98 ± 0.17 | 2.06 ± 0.18 |  |  |  |  | 
C#CCCCCCC [1-octyne] + CC(O)C(=O)[O-].CC[N+]1(C)CCCC1 | 14.2 ± 1.2 | 14.7 ± 1.3 | 15.5 ± 1.3 | 16 ± 1.4 | 16.6 ± 1.4 | 17.1 ± 1.5 | 13.6 ± 1.2 |  |  |  | 
C#CCCC [1-pentyne] + CC(O)C(=O)[O-].CC[N+]1(C)CCCC1 | 3.43 ± 0.3 | 3.66 ± 0.32 | 3.95 ± 0.34 | 4.2 ± 0.4 | 4.46 ± 0.38 | 4.69 ± 0.4 | 3.18 ± 0.27 |  |  |  | 
CC(C)CC(C)(C)C [2,2,4-trimethylpentane] + CC(O)C(=O)[O-].CC[N+]1(C)CCCC1 | 242 ± 21 | 220 ± 19 | 201 ± 17 | 187 ± 16 | 173 ± 15 | 161 ± 14 | 270 ± 23 |  |  |  | 
CCOC(C)(C)C [2-ethoxy-2-methylpropane] + CC(O)C(=O)[O-].CC[N+]1(C)CCCC1 | 45.2 ± 3.9 | 43.9 ± 3.8 | 42.5 ± 3.7 | 41.6 ± 3.6 | 40.7 ± 3.5 | 39.7 ± 3.4 | 46.2 ± 4 |  |  |  | 
CCCCC(C)=O [2-hexanone] + CC(O)C(=O)[O-].CC[N+]1(C)CCCC1 | 7.09 ± 0.61 | 7.16 ± 0.62 | 7.22 ± 0.62 | 7.31 ± 0.63 | 7.39 ± 0.64 | 7.54 ± 0.65 |  |  |  |  | 
CCC(C)(C)OC [2-methoxy-2-methylbutane] + CC(O)C(=O)[O-].CC[N+]1(C)CCCC1 | 27.8 ± 2.4 | 27.3 ± 2.4 | 26.8 ± 2.3 | 26.3 ± 2.3 | 26.1 ± 2.3 | 25.8 ± 2.2 | 27.9 ± 2.4 |  |  |  | 
COC(C)(C)C [2-methoxy-2-methylpropane] + CC(O)C(=O)[O-].CC[N+]1(C)CCCC1 | 18 ± 1.6 | 17.9 ± 1.5 | 17.9 ± 1.5 | 17.8 ± 1.5 | 17.7 ± 1.5 | 17.7 ± 1.5 | 18.1 ± 1.6 |  |  |  | 

Compound | activity coefficient (318.15 K) | activity coefficient (328.15 K) | activity coefficient (338.15 K) | activity coefficient (348.15 K) | activity coefficient (358.15 K) | activity coefficient (368.15 K) | activity coefficient (308.15 K) | activity coefficient (378.15 K) | activity coefficient (388.15 K) | activity coefficient (398.15 K) | activity coefficient (408.15 K)
CCCC(=O)CC [3-hexanone] + CC(O)C(=O)[O-].CC[N+]1(C)CCCC1 | 8.06 ± 0.7 | 8.06 ± 0.7 | 8.12 ± 0.7 | 8.19 ± 0.71 | 8.25 ± 0.71 | 8.4 ± 0.73 |  |  |  |  | 
CCC(C)CC [3-methylpentane] + CC(O)C(=O)[O-].CC[N+]1(C)CCCC1 | 111 ± 10 | 102 ± 9 | 94.5 ± 8.2 | 88.7 ± 7.7 | 83.5 ± 7.2 | 78.4 ± 6.8 | 122 ± 11 |  |  |  | 
CC(C)=O [acetone] + CC(O)C(=O)[O-].CC[N+]1(C)CCCC1 | 1.93 ± 0.17 | 1.97 ± 0.17 | 2.03 ± 0.18 | 2.08 ± 0.18 | 2.14 ± 0.18 | 2.21 ± 0.19 |  |  |  |  | 
CC#N [acetonitrile] + CC(O)C(=O)[O-].CC[N+]1(C)CCCC1 | 0.773 ± 0.065 | 0.808 ± 0.068 | 0.844 ± 0.07 | 0.88 ± 0.07 | 0.915 ± 0.076 | 0.962 ± 0.079 |  |  |  |  | 
c1ccccc1 [benzene] + CC(O)C(=O)[O-].CC[N+]1(C)CCCC1 | 2.85 ± 0.25 | 2.94 ± 0.25 | 3.04 ± 0.26 | 3.14 ± 0.27 | 3.24 ± 0.28 | 3.36 ± 0.29 |  |  |  |  | 
CCCCO [butan-1-ol] + CC(O)C(=O)[O-].CC[N+]1(C)CCCC1 |  |  |  |  | 0.335 ± 0.036 | 0.361 ± 0.038 |  | 0.388 ± 0.039 | 0.421 ± 0.041 | 0.453 ± 0.043 | 0.486 ± 0.045
C1CCCCCC1 [cycloheptane] + CC(O)C(=O)[O-].CC[N+]1(C)CCCC1 | 64.6 ± 5.6 | 60.3 ± 5.2 | 57 ± 4.9 | 53.8 ± 4.7 | 51 ± 4.4 | 47.8 ± 4.1 | 69.7 ± 6 |  |  |  | 
C1CCCCC1 [cyclohexane] + CC(O)C(=O)[O-].CC[N+]1(C)CCCC1 | 48.6 ± 4.2 | 45 ± 3.9 | 42.6 ± 3.7 | 40.6 ± 3.5 | 38.4 ± 3.3 | 36.3 ± 3.1 | 52.7 ± 4.6 |  |  |  | 
C1=CCCCC1 [cyclohexene] + CC(O)C(=O)[O-].CC[N+]1(C)CCCC1 | 21.7 ± 1.9 | 20.7 ± 1.8 | 20.2 ± 1.7 | 19.7 ± 1.7 | 19.5 ± 1.7 | 18.9 ± 1.6 | 22.4 ± 1.9 |  |  |  | 
C1CCCCCCC1 [cyclooctane] + CC(O)C(=O)[O-].CC[N+]1(C)CCCC1 | 88.7 ± 7.7 | 82.1 ± 7.1 | 77.2 ± 6.7 | 72.6 ± 6.3 | 68 ± 5.9 | 63.9 ± 5.5 | 95.8 ± 8.3 |  |  |  | 
C1CCCC1 [cyclopentane] + CC(O)C(=O)[O-].CC[N+]1(C)CCCC1 | 29.7 ± 2.6 | 28.2 ± 2.4 | 26.9 ± 2.3 | 25.7 ± 2.2 | 24.7 ± 2.1 | 23.5 ± 2 | 31.7 ± 2.7 |  |  |  | 
CCCCCCCCCC [decane] + CC(O)C(=O)[O-].CC[N+]1(C)CCCC1 | 725 ± 63 | 651 ± 57 | 597 ± 52 | 542 ± 47 | 496 ± 43 | 456 ± 40 | 787 ± 68 |  |  |  | 
CCOCC [diethyl ether] + CC(O)C(=O)[O-].CC[N+]1(C)CCCC1 | 15.6 ± 1.3 | 15.5 ± 1.3 | 15.1 ± 1.3 | 15 ± 1.3 | 15.1 ± 1.3 | 14.9 ± 1.3 | 15.8 ± 1.4 |  |  |  | 
CC(C)OC(C)C [diisopropyl ether] + CC(O)C(=O)[O-].CC[N+]1(C)CCCC1 | 53.6 ± 4.6 | 52 ± 4.5 | 50.1 ± 4.3 | 48.6 ± 4.2 | 47.2 ± 4.1 | 45.9 ± 4 | 55.3 ± 4.8 |  |  |  | 
CCCOCCC [dipropyl ether] + CC(O)C(=O)[O-].CC[N+]1(C)CCCC1 | 50.3 ± 4.4 | 48.2 ± 4.2 | 46.2 ± 4 | 44.8 ± 3.9 | 43.2 ± 3.7 | 41.9 ± 3.6 | 52.1 ± 4.5 |  |  |  | 
CCO [ethanol] + CC(O)C(=O)[O-].CC[N+]1(C)CCCC1 |  |  |  |  | 0.174 ± 0.03 | 0.187 ± 0.03 |  | 0.201 ± 0.031 | 0.219 ± 0.031 | 0.234 ± 0.032 | 0.255 ± 0.033
